How the values were obtained:
[1] = tested on: hypotension induced by PAF; assay: Inhibition of the hypotensive effect induced by PAF in normotense rats; type: in vivo, Sprage Dawley rats; settings: anesthetized male rats; compound given through the femoral vein 3 min before PAF (0.5 mcg/Kg, i.v.); average arterial pressure
Protocol: Inhibition of the hypotensive effect induced by PAF in normotense rats.
Male Sprage Dawley rats, of 180-220 g of weight, anesthetized with sodium pentobarbital (50 mg/Kg, i.p. 1 mL/100 g) have been used. In order to measure the average arterial pressure, a polyethylene catheter is introduced into the carotid artery. The arterial pressure is recorded with the help of a transducer connected with a R611 Beckman polygraph. The tested compounds are administered through the femoral vein 3 min before the injection of PAF (0.5 mcg/Kg, i.v.).

[2] = tested on: platelet aggregation induced by PAF; assay: Inhibition of platelet aggregation induced by PAF (rabbit platelet rich plasma, Born nephelometric technique); type: cell-based, New Zealand albino rabbits; settings: Oryctolagus cuniculus, concentration needed to inhibit platelet aggregation by 50%, PAF (C₁₈) 16 nM final, read-out: IC₅₀
Protocol: Inhibition of platelet aggregation induced by PAF.
The blood is obtained by cardiac puncture of male New Zealand albino rabbits (between 2 and 2.5 Kg of weight) and coagulation is prevented by adding 1 part of 3.16% sodium citrate dihydrate in 9 parts of blood. The platelet rich plasma (PRP) is prepared by blood centrifugation at 250xg for 10 min. at 4°C and it is diluted with platelet poor plasma (PPP) by additional centrifugation at 3000xg for 10 min. The amount of platelets is adjusted to […]. The platelet aggregation induced by PAF (C₁₈; prepared in our laboratory) (16 nM, final) is determined by the Born nephelometric technique (J. Physiol., 1962, 162, 67) using a aggregometer Chrono-log 500. The activities of the inhibitors are expressed as IC₅₀, that is to say the concentration of the drug needed to inhibit the platelet aggregation by 50%.

IC50 [2] [nM] | SMILES | CI₅₀ [1]
1200 | CCCCCCCCCCCCCCCCCCOCC1OCC(COC(=O)N(Cc2cccc[n+]2C)C(C)=O)O1.[I-] (stereo not drawn) [Compound 10, 2-(N-Acetyl-N-(((2-octadecyloxymethyl-1,3-dioxolan-4-yl)methoxy)carbonyl)aminomethyl)-1-methylpyridinium iodide] | 0.35 mg/Kg,i.v.
< 100 | CCCCCCCCCCCCCCCNC(=O)OCC1OCC(COC(=O)N(Cc2cccc[n+]2CC)C(C)=O)O1.[I-] (stereo not drawn) [Compound 14, 2(N-Acetyl-N-(((2-pentadecylcarbamoyloxymethyl-1,3-dioxolan-4-yl)methoxy)carbonyl)aminomethyl)-1-ethylpyridinium iodide] | <0.1 mg/Kg,i.v.
160 | CCCCCCCCCCCCCCCCCCOCC1OCC(COC(=O)N(Cc2cccc[n+]2CC)C(C)=O)O1.[I-] (stereo not drawn) [Compound 11, 2(N-Acetyl-N-(((2-octadecyloxymethyl-1,3-dioxolan-4-yl)methoxy)carbonyl)aminomethyl)-1-ethylpyridinium iodide] | <0.1 mg/Kg,i.v.
210 | CCCCCCCCCCCCCCCCCC1OCC(COC(=O)N(Cc2cccc[n+]2CC)C(C)=O)O1.[I-] (stereo not drawn) [Compound 4, 2-(N-acetyl-N-(((2-heptadecyl-1,3-dioxolane-4-yl)methoxy)carbonyl)aminomethyl)-1-ethylpyridinium iodide] | 0.2 mg/Kg,i.v.
< 100 | CCCCCCCCCCCCCCCCOCC1OCC(COC(=O)N(Cc2cccc[n+]2CC)C(C)=O)O1.[I-] (stereo not drawn) [Compound 7, 2-(N-Acetyl-N-(((2-hexadecyloxymethyl-1,3-dioxolan-4-yl)methoxy)carbonyl)aminomethyl)-1-ethylpyridinium iodide] | <0.1 mg/Kg,i.v.
2200 | CCCCCCCCCCCCCCCCCC1OCC(COC(=O)N(Cc2cccc[n+]2C)C(C)=O)O1.[I-] (stereo not drawn) [Compound 3, 2-(N-Acetyl-N-(((2-heptadecyl-1,3-dioxolane-4-yl)methoxy)carbonyl)aminomethyl)-1-methylpyridinium iodide] | 0.9 mg/Kg,i.v.

— patent EP0388950A2, “New 1,3-dioxolan-4-yl derivatives of 2-picolylamine” (J. URIACH & CIA. S.A., priority 1989, dated 1990)
